# Laboratory results: US20190351012A1, “TARGETING OF INTERFERON-STIMULATED GENE EXPRESSION TO TREAT INTERFERONOPATHIES” (New York University, priority 2018, published 2019)
# Assays:
# [1] = test system: ISG54 promoter and G6TI control templates; test: In vitro transcription run-off assay with nuclear extracts and recombinant ISGF3; type: biochemical, human; settings: TSA included in run-off reaction, naked DNA templates
# From the text: (§1) FIG. 2. […] (A) Nuclear extracts from HEK293T cells expressing activated recombinant ISGF3 (STAT1, STAT2, IRF9 and JAK1) or transfected with vector (Ctl) were programmed with G6TI-CAT (G6TI) or p107 (ISG54) templates. Radiolabeled RNA transcripts were resolved by polyacrylamide-urea gel electrophoresis. Arrow and arrowhead indicate position of the transcripts from G6TI-CAT and p107, respectively. (B) HeLa cells were either left untreated or treated with IFN-α in the absence or presence of TSA (TSA in vivo) before nuclei were isolated for run-on transcription. Where indicated, TSA was added to the elongation reaction in vitro (TSA in vitro). Specific signals from γ-actin, ISG15, ISG56, 6-16, 9-27, IRF9 and GBP transcription were quantified following filter hybridization and normalized to the signal for GAPDH, arbitrarily set to 100. Representative data from three independent experiments are shown. FS2 human diploid fibroblasts were starved for 72 h before being treated with IFN-α for 7.5 h in the absence or presence of TSA. Mononucleosomal DNA fraction was purified from MNase-digested nuclei and analyzed for nucleosome positions by PCR quantitation of protected fragments. All samples were quantified by real-time PCR, except the—53—+1 ISG54 fragment, which was quantified by gel electrophoresis (C). […]
# [2] = test system: ISG transcription in HeLa cell nuclei; test: Run-on nuclear transcription in HeLa nuclei; type: cell-based, human
# From the text: as §1, with “Representative data from three independent experiments are shown. FS2 human diploid fibroblasts were starved for 72 h before being treated with IFN-α for 7.5 h in the absence or presence of TSA.” left out
# Run-off transcription is largely a measure of transcriptional […]. […] Nuclei were isolated from cells untreated or treated with IFNα, pulse-labeled in vitro with radioactive nucleotides, and specific transcriptional elongation was quantified by filter hybridization (FIG. 2B). […]
compound,measurement,setting,value
"CC(/C=C/C(=O)NO)=C\[C@@H](C)C(=O)c1ccc(N(C)C)cc1 [TSA, Trichostatin A]",inhibition of basal and ISGF3-dependent transcription in vitro,[1],neither basal nor ISGF3-dependent transcription was inhibited
same,housekeeping and ISG transcription in nuclear run-on,[2]; TSA added to the in vitro run-on reaction,failed to affect
same,ISG transcription in isolated nuclei,[2]; cells stimulated with IFN in the presence of TSA (TSA in vivo),impaired
